The source of these data is publication PMC6002953 (ACS chemical neuroscience, 2017).

In one experiment the target is T1, human OX2 receptor (Homo sapiens, UniProt O43614).
T1 sequence (O43614 1-444): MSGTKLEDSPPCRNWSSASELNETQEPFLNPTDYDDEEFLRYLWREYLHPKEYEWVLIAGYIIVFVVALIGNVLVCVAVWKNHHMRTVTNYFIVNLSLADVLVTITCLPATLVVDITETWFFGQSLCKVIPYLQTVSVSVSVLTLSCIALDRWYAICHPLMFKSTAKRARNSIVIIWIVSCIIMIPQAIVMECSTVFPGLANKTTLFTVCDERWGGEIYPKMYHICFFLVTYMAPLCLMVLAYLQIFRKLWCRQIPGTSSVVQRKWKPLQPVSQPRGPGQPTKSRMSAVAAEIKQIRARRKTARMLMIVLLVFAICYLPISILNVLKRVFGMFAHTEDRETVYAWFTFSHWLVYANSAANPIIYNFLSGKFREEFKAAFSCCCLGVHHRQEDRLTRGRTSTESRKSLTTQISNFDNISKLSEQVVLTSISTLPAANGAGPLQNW
As to the kind of experiment: Calcium mobilization Ke assay, OX2. The class given is cell-based. The following applies: for inhibition at 10 µM: read-out: Ke (OX2, nM) column: inhibition at 10 μM final concentration.

The next experiment addresses T2, human OX1 receptor (Homo sapiens, UniProt O43613).
T2 sequence (O43613 1-425): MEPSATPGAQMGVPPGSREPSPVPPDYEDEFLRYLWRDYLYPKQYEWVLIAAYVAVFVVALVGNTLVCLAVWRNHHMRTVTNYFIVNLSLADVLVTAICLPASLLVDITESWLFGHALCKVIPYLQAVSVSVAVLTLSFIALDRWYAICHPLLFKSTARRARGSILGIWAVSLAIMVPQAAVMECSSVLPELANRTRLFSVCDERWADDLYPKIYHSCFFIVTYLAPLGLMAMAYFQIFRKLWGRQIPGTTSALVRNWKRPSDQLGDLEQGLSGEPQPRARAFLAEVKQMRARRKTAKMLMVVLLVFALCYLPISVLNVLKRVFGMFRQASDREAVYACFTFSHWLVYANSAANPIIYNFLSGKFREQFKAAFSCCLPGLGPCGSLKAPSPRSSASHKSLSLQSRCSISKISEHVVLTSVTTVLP
Nature of the experiment: Calcium mobilization Ke assay, OX1. The class given is cell-based. Conditions: for OX2/OX1: ratio of Ke values OX2/OX1. For orientation: A change in cytosolic calcium serves as a functional read-out for many receptors and channels.

[1] abbreviates: Ke (OX1, nM), compound appeared insurmountable during standard assay procedure, incubation increased to 1 hour.

Read-outs that look alike come from different tables or passages of the source.

A word on the Kd: it is the concentration at which binding is half-saturated. On to `CCCOc1cc2c(cc1OC)CCN(CC(=O)NCc1ccccc1)C2Cc1ccc(C(C)C)cc1` (centres unmarked) [Compound 12c, N-Benzyl-2-(6-methoxy-1-{[4-(propan-2-yl)phenyl]methyl}-7-propoxy-1,2,3,4-tetrahydroisoquinolin-2-yl)acetamide], for which the inhibition at 10 µM at human OX2 receptor was less than 50%. Further, on human OX1 receptor, the Kd is 141 ± 42 nM and the OX2/OX1 is reported as greater than 70.9.

As to `CCCOc1cc2c(cc1OC)CCN(CC(=O)NCc1ccccc1)C2Cc1cccc(N(C)C)c1` (centres unmarked) [Compound 12f, N-Benzyl-2-(1-{[3-(dimethylamino)phenyl]methyl}-6-methoxy-7-propoxy-1,2,3,4-tetrahydroisoquinolin-2-yl)acetamide], the inhibition at 10 µM at human OX2 receptor is less than 50%. Moreover, at human OX1 receptor, the dissociation constant Kd is 20.6 ± 2.8 nM and the OX2/OX1 was greater than 485.

Take `CCCOc1cc2c(cc1OC)CCN(CC(=O)NCc1ccccc1)C2Cc1ccc(N(C)C)cc1` (centres unmarked) [Compound 12d, N-Benzyl-2-(1-{[4-(dimethylamino)phenyl]methyl}-6-methoxy-7-propoxy-1,2,3,4-tetrahydroisoquinolin-2-yl)acetamide]: the Kd at human OX2 receptor was greater than 10 µM. On human OX1 receptor, the Kd was determined as 173 ± 5 nM and the OX2/OX1 is greater than 58.

Regarding `COc1cc2c(cc1OCC(F)(F)F)C(Cc1ccc(C)c(C)c1)N(CC(=O)NCc1cccnc1)CC2` (centres unmarked) [Compound 15b, 2-{1-[(3,4-Dimethylphenyl)methyl]-6-methoxy-7-(2,2,2-trifluoroethoxy)-1,2,3,4-tetrahydroisoquinolin-2-yl}-N-(pyridin-3-ylmethyl)acetamide], the Kd at human OX2 receptor stood at 1.36 ± 0.15 µM. At human OX1 receptor, the Kd stood at 20.4 ± 2.9 nM and the OX2/OX1 amounted to 67.

With `COc1cc2c(cc1NS(C)(=O)=O)C(Cc1ccc(OC)c(OC)c1)N(CC(=O)NCc1ccccc1)CC2` (centres unmarked) [Compound 34d, N-Benzyl-2-{1-[(3,4-dimethoxyphenyl)methyl]-7-methanesulfonamido-6-methoxy-1,2,3,4-tetrahydroisoquinolin-2-yl}acetamide], the Kd at human OX2 receptor was greater than 10 µM; at human OX1 receptor, 128 ± 13 nM. For the same compound, the OX2/OX1 at human OX1 receptor is reported as greater than 78.

As to `CCCOc1cc2c(cc1OC)CCN(CC(=O)NCc1ccccc1)C2Cc1ccc(OCc2ccccn2)c(OC)c1` (centres unmarked) [Compound 12g, N-Benzyl-2-(6-methoxy-1-{[3-methoxy-4-(pyridin-2-ylmethoxy)phenyl]methyl}-7-propoxy-1,2,3,4-tetrahydroisoquinolin-2-yl)acetamide], the Kd on human OX2 receptor was greater than 10 µM; on human OX1 receptor, 96.4 ± 34 nM. For the same compound, on human OX1 receptor (OX1 over OX2, calcium mobilization assays), the “selectivity over OX2” value is greater than 100 fold. Also, the OX2/OX1 at human OX1 receptor was greater than 104.

In the case of `COc1cc2c(cc1OCC(F)(F)F)C(Cc1ccncc1)N(CC(=O)NCc1ccccc1)CC2` (centres unmarked) [Compound 19c, N-Benzyl-2-[6-methoxy-1-(pyridin-4-ylmethyl)-7-(2,2,2-trifluoroethoxy)-1,2,3,4-tetrahydroisoquinolin-2-yl]acetamide], the inhibition at 10 µM on human OX2 receptor is less than 50%. Further, the dissociation constant (Kd) on human OX1 receptor (setting [1]) stood at 1860 nM. Moreover, the OX2/OX1 at human OX1 receptor was greater than 5.4.

Regarding `COc1cc2c(cc1NCc1ccccc1)C(Cc1ccc(OC)c(OC)c1)N(CC(=O)NCc1ccccc1)CC2` (centres unmarked) [Compound 34b, N-Benzyl-2-[7-(benzylamino)-1-[(3,4-dimethoxyphenyl)methyl]-6-methoxy-1,2,3,4-tetrahydroisoquinolin-2-yl]acetamide], at human OX2 receptor, the inhibition at 10 µM was less than 35%. Besides, on human OX1 receptor, the dissociation constant (Kd) turned out to be 352 ± 34 nM and the OX2/OX1 was greater than 28.

For the compound `CCCOc1cc2c(cc1OC)CCN(CC(=O)NCc1ccccc1)C2Cc1ccc(C)c(C)c1` (centres unmarked) [Compound 12b, N-Benzyl-2-{1-[(3,4-dimethylphenyl)methyl]-6-methoxy-7-propoxy-1,2,3,4-tetrahydroisoquinolin-2-yl}acetamide], the inhibition at 10 µM at human OX2 receptor was less than 50%. Also, on human OX1 receptor, the Kd worked out at 28.8 ± 4.4 nM and the OX2/OX1 was greater than 347.

Turning to `CCCCOc1ccc(CC2c3cc(OS(C)(=O)=O)c(OC)cc3CCN2CC(=O)NCc2ccccc2)cc1OC` (centres unmarked) [Compound 25b, 2-[(Benzylcarbamoyl)methyl]-1-[(4-butoxy-3-methoxyphenyl)methyl]-6-methoxy-1,2,3,4-tetrahydroisoquinolin-7-yl methanesulfonate], the Kd at human OX2 receptor came out at 1.2 µM. At human OX1 receptor, the Kd worked out at 5.24 ± 1 nM and the OX2/OX1 is listed as 229.

On to `COc1cc(CC2c3cc(OS(C)(=O)=O)c(OC)cc3CCN2CC(=O)NCc2ccccc2)ccc1OCc1ccccc1` (centres unmarked) [Compound 25a, 2-[(Benzylcarbamoyl)methyl]-1-{[4-(benzyloxy)-3-methoxyphenyl]methyl}-6-methoxy-1,2,3,4-tetrahydroisoquinolin-7-yl methanesulfonate], for which the inhibition at 10 µM at human OX2 receptor is less than 50%. At human OX1 receptor, the dissociation constant Kd came out at 43 ± 18 nM and the OX2/OX1 is greater than 232.

As for `COc1ccc(CC2c3cc(N(C)C)c(OC)cc3CCN2CC(=O)NCc2ccccc2)cc1N(C)C` (centres unmarked) [Compound 39, N-Benzyl-2-[7-(dimethylamino)-1-{[3-(dimethylamino)-4-methoxyphenyl]methyl}-6-methoxy-1,2,3,4-tetrahydroisoquinolin-2-yl]acetamide], at human OX2 receptor, the equilibrium dissociation constant (Kd) turned out to be 0.857 ± 0.22 µM. At human OX1 receptor, the dissociation constant Kd came out at 7.6 ± 2.8 nM and the OX2/OX1 came to 113.

With `COc1cc2c(cc1N(C)C)C(Cc1cccc(N(C)C)c1)N(CC(=O)NCc1ccccc1)CC2` (centres unmarked) [Compound 42, N-Benzyl-2-[7-(dimethylamino)-1-{[3-(dimethylamino)phenyl]methyl}-6-methoxy-1,2,3,4-tetrahydroisoquinolin-2-yl]acetamide], on human OX2 receptor, the Kd stood at 1.36 µM. Moreover, on human OX1 receptor, the equilibrium dissociation constant (Kd) came out at 148 ± 36 nM and the OX2/OX1 turned out to be 9.1.

Take `COC(=O)Nc1cc(CC2c3cc(NC(=O)OC)c(OC)cc3CCN2CC(=O)NCc2ccccc2)ccc1OC` (centres unmarked) [Compound 38, Methyl N-{2-[(Benzylcarbamoyl)methyl]-6-methoxy-1-({4-methoxy-3-[(methoxycarbonyl)amino]phenyl}methyl)-1,2,3,4-tetrahydroisoquinolin-7-yl}carbamate]: the equilibrium dissociation constant (Kd) at human OX2 receptor is 0.592 ± 0.17 µM; at human OX1 receptor, greater than 10000 nM.

Consider `COc1cc2c(cc1OCC(F)(F)F)C(Cc1cccnc1)N(CC(=O)NCc1ccccc1)CC2` (centres unmarked) [Compound 19b, N-Benzyl-2-[6-methoxy-1-(pyridin-3-ylmethyl)-7-(2,2,2-trifluoroethoxy)-1,2,3,4-tetrahydroisoquinolin-2-yl]acetamide], for which, on human OX2 receptor, the inhibition at 10 µM is less than 50%. In addition, the Kd on human OX1 receptor (setting [1]) was greater than 10000 nM.

Consider `COc1cc2c(cc1N)C(Cc1ccc(OC)c(OC)c1)N(CC(=O)NCc1ccccc1)CC2` (centres unmarked) [Compound 33, 2-{7-Amino-1-[(3,4-dimethoxyphenyl)methyl]-6-methoxy-1,2,3,4-tetrahydroisoquinolin-2-yl}-N-benzylacetamide], for which the Kd at human OX2 receptor is greater than 10 µM. Further, at human OX1 receptor, the dissociation constant Kd was 494 ± 32 nM and the OX2/OX1 is greater than 20.

Consider `COc1ccc(CC2c3cc(N(C)C)c(OC)cc3CCN2CC(=O)NCc2ccccc2)cc1OC` (centres unmarked) [Compound 34a, N-Benzyl-2-{1-[(3,4-dimethoxyphenyl)methyl]-7-(dimethylamino)-6-methoxy-1,2,3,4-tetrahydroisoquinolin-2-yl}acetamide], for which the Kd at human OX2 receptor was greater than 10 µM; on human OX1 receptor it was 31.2 ± 3.3 nM. Further, on human OX1 receptor, the OX2/OX1 is greater than 321.
